Data as given in ChEMBL document CHEMBL6120988, “Mitochondria-targeting artesunate-rhein conjugates: Linker-modulated cell-permeability, heme-affinity and anticancer activity” (Eur J Med Chem, 2025).
Activity calls are given as the source filed them. The calls are words filed in the database; no cut-off is given here.

Tests used:
[1] = Drug uptake in mouse 4T1 cells after 3 hrs by flow cytometry analysis; assay type: ADME, cell-based; settings: 4t1, 3 h
[2] = tested on: 4T1; assay: Induction of immunogenic cell death in mouse 4T1 cells allografted in female BALB/c mouse assessed as increase in CD80+ CD86+CD11c+ cells DC maturation at 100 mg/kg, po administrated every day for 15 times and measured after 22 days by flow cytometry (reference value: 7.20 %); assay type: functional; settings: time 22 day
[3] = tested on: 4T1; assay: Antitumor activity against mouse 4T1 cells allografted in female BALB/c mouse assessed as reduction in tumor tissue weight at 100 mg/kg, po administrated every day for 15 times and measured after 22 days; assay type: functional, organism-based; settings: time 22.0 day
[4] = Toxicity in female BALB/c mouse allografted with mouse 4T1 cells assessed as effect on blood platelet at 10 mg/kg, iv administrated every 3 days for 5 times and measured after 22 days; assay type: organism-based; settings: in vivo, 528 h, time 22 day
[5] = tested on: 4T1; assay: Potency index, ratio of paclitaxel IC50 to test compound IC50 for cytotoxicity against mouse 4T1 cells assessed as cell viability by MTT assay; assay type: functional
[6] = Oral bioavailability in mouse at 100 mg/kg; assay type: ADME, organism-based; settings: in vivo
[7] = tested on: 4T1; assay: Antitumor activity against mouse 4T1 cells allografted in female BALB/c mouse assessed as inhibition of cell proliferation at 10 mg/kg, iv administrated every 3 day for 5 times and measured after 22 days by PCNA assay; assay type: functional, organism-based; settings: time 22.0 day
[8] = tested on: 4T1; assay: Antitumor activity against mouse 4T1 cells allografted in female BALB/c mouse assessed as inhibition of cell proliferation at 100 mg/kg, po administrated every day for 15 times and measured after 22 days by PCNA assay; assay type: functional, organism-based; settings: time 22.0 day
[9] = tested on: 4T1; assay: Antitumor activity against mouse 4T1 cells allografted in female BALB/c mouse assessed as increase in nuclear shrinkage at 100 mg/kg, po administrated every day for 15 times and measured for 22 days; assay type: functional, organism-based; settings: time 22.0 day
[10] = tested on: 4T1; assay: Induction of apoptosis in mouse 4T1 cells assessed as late apoptotic cells by Annexin V-FITC and PI staining based flow cytometry analysis (reference value: 0.13 %); assay type: functional
[11] = Toxicity against female BALB/c mouse allografted with mouse 4T1 cells assessed as effect on red blood cells at 100 mg/kg, po administrated every day for 15 times and measured after 22 days; assay type: organism-based; settings: in vivo, 528 h, time 22 day
[12] = Toxicity in female BALB/c mouse allografted with mouse 4T1 cells assessed as change in body weight at 100 mg/kg, po administrated every day for 15 times and measured every 2 days for 22 days relative to control; assay type: organism-based; settings: in vivo, 528 h, time 22 day
[13] = Toxicity in female BALB/c mouse allografted with mouse 4T1 cells assessed as survival rate at 10 mg/kg, iv administrated every 3 day for 5 times and measured after 22 days relative to control; assay type: organism-based; settings: in vivo, 528 h, time 22 day
[14] = Toxicity against female BALB/c mouse allografted with mouse 4T1 cells assessed as mean corpuscular volume at 100 mg/kg, po administrated every day for 15 times and measured after 22 days; assay type: organism-based; settings: in vivo, 528 h, time 22 day
[15] = Toxicity in female BALB/c mouse allografted with mouse 4T1 cells assessed as survival rate at 100 mg/kg, po administrated every day for 15 times and measured after 22 days relative to control; assay type: organism-based; settings: in vivo, 528 h, time 22 day
[16] = tested on: 4T1; assay: Induction of apoptosis in mouse 4T1 cells assessed as viable cells by Annexin V-FITC and PI staining based flow cytometry analysis (reference value: 96.2 %); assay type: functional
[17] = MRT (0 to infinity) in mouse at 100 mg/kg, po; assay type: ADME, organism-based; settings: in vivo
[18] = tested on: 4T1; assay: Antitumor activity against mouse 4T1 cells allografted in female BALB/c mouse assessed as increase in infiltration of CD8+IFN-gamma+ lymphocytes in tumors at 10 mg/kg, iv administrated every day for 15 times and measured after 22 days by flow cytometry (reference value: 5.58%); assay type: functional; settings: time 22 day
[19] = tested on: 4T1; assay: Antitumor activity against mouse 4T1 cells allografted in female BALB/c mouse assessed as tumor inhibition rate at 10 mg/kg, iv administrated every 3 day for 5 times and measured after 22 days relative to control; assay type: functional; design: scale not given: the % may be the effect or the level left; settings: time 22 day
[20] = Tmax in mouse iv dosed mouse; assay type: ADME, organism-based; settings: in vivo
[21] = tested on: 4T1; assay: Antitumor activity against mouse 4T1 cells allografted in female BALB/c mouse assessed as increase in nuclear shrinkage at 10 mg/kg, iv administrated every 3 day for 5 times and measured after 22 days; assay type: functional, organism-based; settings: time 22.0 day
[22] = Toxicity against female BALB/c mouse allografted with mouse 4T1 cells assessed as mean corpuscular volume at 10 mg/kg, iv administrated every 3 days for 5 times and measured after 22 days; assay type: organism-based; settings: in vivo, 528 h, time 22 day
[23] = tested on: 4T1; assay: Antitumor activity against mouse 4T1 cells allografted in female BALB/c mouse assessed as increase in infiltration of CD8+IFN-gamma+ lymphocytes in tumors at 100 mg/kg, po administrated every day for 15 times and measured after 22 days by flow cytometry (reference value: 5.99%); assay type: functional; settings: time 22 day
[24] = tested on: 4T1; assay: Induction of repolarization of M2 macrophages into M1 macrophages in mouse 4T1 cells assessed as ratio of M2 to M1 macrophages; assay type: functional, cell-based
[25] = tested on: 4T1; assay: Induction of immunogenic cell death in mouse 4T1 cells allografted in female BALB/c mouse assessed as increase in CD80+ CD86+CD11c+ cells DC maturation at 10 mg/kg, iv administrated every 3 days for 5 times and measured after 22 days by flow cytometry (reference value: 7.77 %); assay type: functional; settings: time 22 day
[26] = tested on: 4T1; assay: Induction of immunogenic cell death in mouse 4T1 cells assessed as increase in ATP release by measuring increase in red fluorescence by CLSM analysis relative to R/A group; assay type: functional, cell-based
[27] = tested on: U-87 MG; assay: Cytotoxicity against human U87 cells assessed as cell viability by MTT assay; assay type: functional, cell-based, U-87MG ATCC
[28] = tested on: Mitochondrial membrane; assay: Induction of mitochondrial membrane potential loss in mouse 4T1 cells assessed as increase in green fluorescence by JC-1 staining based flow cytometric analysis (reference value: 7.4 %); assay type: cell membranes
[29] = Toxicity against female BALB/c mouse allografted with mouse 4T1 cells assessed as effect on white blood cells at 10 mg/kg, iv administrated every 3 days for 5 times and measured after 22 days; assay type: organism-based; settings: in vivo, 528 h, time 22 day
[30] = tested on: 4T1; assay: Induction of mitochondrial dysfunction in mouse 4T1 cells assessed as oxygen consumption rate; assay type: functional, cell-based
[31] = tested on: 4T1; assay: Antitumor activity against mouse 4T1 cells allografted in female BALB/c mouse assessed as increase in infiltration of CD44+CD62L- lymphocytes in tumors at 10 mg/kg, iv administrated every day for 15 times and measured after 22 days by flow cytometry (reference value: 5.17%); assay type: functional; settings: time 22 day
[32] = tested on: 4T1; assay: Antitumor activity against mouse 4T1 cells allografted in female BALB/c mouse assessed as reduction in tumor tissue weight at 10 mg/kg, iv administrated every 3 day for 5 times and measured after for 22 days; assay type: functional, organism-based; settings: time 22.0 day
[33] = tested on: 4T1; assay: Antitumor activity against mouse 4T1 cells allografted in female BALB/c mouse assessed as increase in infiltration of CD44+CD62L- lymphocytes in tumors at 100 mg/kg, po administrated every day for 15 times and measured after 22 days by flow cytometry (reference value: 5.5%); assay type: functional; settings: time 22 day
[34] = tested on: 4T1; assay: Antitumor activity against mouse 4T1 cells allografted in female BALB/c mouse assessed as disappearance of cancer cells at 10 mg/kg, iv administrated every 3 days for 5 times and measured after 22 days by H and E staining based analysis; assay type: functional, organism-based; settings: time 22.0 day
[35] = tested on: A549; assay: Cytotoxicity against human A549 cells assessed as cell viability by MTT assay; assay type: functional, cell-based

SMILES: C[C@H]1[C@H](OC(=O)CCC(=O)OCCCCOC(=O)c2cc(O)c3c(c2)C(=O)c2cccc(O)c2C3=O)O[C@@H]2O[C@@]3(C)CC[C@H]4[C@H](C)CC[C@@H]1[C@@]24OO3
- Activity [1]: Active
- Activity [2]: 17.4%
- Activity [3]: Active
- Activity [4]: Non-toxic
- Ratio IC50 [5]: 3
- bioavailability [6]: 15.8%
- Activity [7]: Active
- Activity [8]: Active
- Activity [9]: Active
- Activity [10]: 29.4%
- Activity [11]: Non-toxic
- Activity [12]: Non-toxic
- Survival [13]: <= 39 day
- Activity [14]: Non-toxic
- Survival [15]: <= 39 day
- Activity [16]: 35.5%
- MRT inf [17]: 4.95 h
- Activity [18]: 12.3%
- Activity [19]: 79.15%
- Tmax [20]: 0.17 h
- Activity [21]: Active
- Activity [22]: Non-toxic
- Activity [23]: 13.3%
- Activity [24]: Active; Compound Triggers Repolarization By Reversing The Ratio Of M2 To M1 Macrophages
- Activity [25]: 20%
- Activity [26]: Active
- IC50 [27]: 2140 nM
- Activity [28]: 45.6%
- Activity [29]: Non-toxic
- Activity [30]: Active
- Activity [31]: 14.4%
- Activity [32]: Active; Tumor Lighter Weight Than Pbs Treatment
- Activity [33]: 17.2%
- Activity [34]: Active
- IC50 [35]: 2790 nM
